{
  "source": "patent US20220220481A1",
  "about": "“LIPID OLIGONUCLEOTIDE ANTISENSE AGAINST ANTIBIOTIC RESISTANCE” (priority 2019, published 2022)",
  "key": {"[1]": {"system": "E. coli K12 (CFX sensitive strain)", "assay": "Ceftriaxone MIC with or without ASOs/LASOs, liquid micro-dilution, sensitive strain", "type": "cell-based, Escherichia coli", "conditions": "K12, 24 h, SD 0, n=3", "protocol": "(§1) Determination of minimum inhibitor concentration (MICs) of free CFX with or without ASOs/LASOs was performed on different strains of E. coli, i.e. the CFX sensitive strain K12, and the two resistant strains TcK12 and Ec3536.\n(§2) MICs of free CFX with ASOs/LASOs were determined in accordance with the standard method of liquid micro-dilution.\nEach bacterial strain that had been frozen at −80° C. was isolated on Mueller-Hinton (MH) agar during 16 h at 37° C. A bacterial suspension in solution of 0.85% NaCl was prepared in order to obtain a turbidity equivalent to standard 0.5 of McFarland range and then diluted 1/100 in MH that correspond to a bacterial inoculum of ca. 10^6 CFU/mL. The bacterial suspension was afterwards mixed with ASOs, LASOs at 2-fold desired concentration in MH. Then 50 μL of bacterial suspension mixed with 50 μl MH, containing oligonucleotides or CFX, was dispensed into the microplate wells immediately. The final volume per well was 100 μL. The concentration of oligonucleotides in well was fixed at 5 μM except for dose-effect tests. The concentration range of LASOs from 0.05 μM to 50 μM was tested. The range of CFX concentration was adjusted to surround the MIC of each bacterial strain. […]\n(§3) Preliminary data allowed to optimize the analysis of microplates using turbidimeter (Apollo LB 911 (Berthold)) at the wavelength of 620 nm, read in triplicate at 0 h, and 24 h. […]"}, "[2]": {"system": "E. coli TcK12 (resistant, blaCTX-M-15 plasmid)", "assay": "Ceftriaxone MIC with or without ASOs/LASOs, liquid micro-dilution, resistant laboratory strain", "type": "cell-based, Escherichia coli", "conditions": "TcK12, 24 h", "source_text": "E. coli strains used included the clinical strain Ec3536 collected from a urine sample of the community patient and provided from the MFP Laboratory collection (Arpin et al. (2009) J. Antimicrob. Chemother. 63:1205-1214). Its conjugative plasmid containing the blaCTX-M-15 gene was transferred by conjugation experiment in a laboratory recipient cell of E. coli K12. Consequently, the transconjugant E. coli TcK12 was resistant to ceftriaxone (CFX) (Arpin et al. (2009) J. Antimicrob. Chemother. 63:1205-1214).\nas §1, §2\nEach bacterial strain that had been frozen at −80° C. was isolated on Mueller-Hinton (MH) agar during 16 h at 37° C. A bacterial suspension in solution of 0.85% NaCl was prepared in order to obtain a turbidity equivalent to standard 0.5 of McFarland range and then diluted 1/100 in MH that correspond to a bacterial inoculum of ca. 10^6 CFU/mL. […]\nas §3"}},
  "data": [
    {"compound": "CO/N=C(\\C(=O)N[C@@H]1C(=O)N2C(C(=O)O)=C(CSc3nc(=O)c(=O)[nH]n3C)CS[C@H]12)c1csc(N)n1", "note": "[CFX, ceftriaxone]", "values": [
      {"measurement": "CFX MIC in absence of antisense sequences", "setting": "[1]", "result": 0.06, "unit": "mg/L"},
      {"measurement": "CFX MIC without oligonucleotide (means of MICs)", "setting": "[2]", "result": 1365, "unit": "mg/L"}
    ]}
  ]
}
